Laboratory results taken from patent US20260070945A1, “MACROCYCLIC IMMUNOMODULATORS” (Bristol-Myers Squibb Company, priority 2022, published 2026).
Where a SMILES comes first, the peptide text is derived from it. Bridges are numbered along the chain shown (N, C = ends). [ ]: non-standard residue; d: D form. The star is where a group is joined. Bip = N[C@@H](Cc1ccc(-c2ccccc2)cc1)C(=O)O; Phe(3-Me) = Cc1cccc(C[C@H](N)C(=O)O)c1; 4Pal = N[C@@H](Cc1ccncc1)C(=O)O; Cha = N[C@@H](CC1CCCCC1)C(=O)O; Carboxymethyl = O=C(O)C*; NMeA = CN[C@@H](C)C(=O)O; Orn = NCCC[C@H](N)C(=O)O; Aun = NCCCCCCCCCCC(=O)O; Dab = NCC[C@H](N)C(=O)O; AEEA = NCCOCCOCC(=O)O

Target: T1, PD-1/PD-L1 interaction (PE-labeled human PD-L1-Ig binding to Jurkat cell line over-expressing human PD-1) (Homo sapiens, UniProt Q15116)
T1 construct: expressed in transfected cells; host or cells: Jurkat
T1 sequence (Q15116 25-288): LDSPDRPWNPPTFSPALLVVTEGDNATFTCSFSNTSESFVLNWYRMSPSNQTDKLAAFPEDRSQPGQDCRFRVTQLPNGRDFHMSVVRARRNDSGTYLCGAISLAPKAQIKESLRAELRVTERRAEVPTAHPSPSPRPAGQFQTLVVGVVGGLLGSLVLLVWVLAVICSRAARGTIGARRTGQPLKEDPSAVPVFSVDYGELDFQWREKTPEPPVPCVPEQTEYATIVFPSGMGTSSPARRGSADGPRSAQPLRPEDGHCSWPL
Test: Jurkat-PD-1 Cell Binding High-Content Screening Assay (CBA)
Conditions: Jurkat-hPD-1 cells, PE-labeled PD-L1-Ig 20 nM final; read-out: Jurkat HPD1 PDL1 IC50
Procedure, shortened: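 Cells 8×10^3/well, DMEM + 10% FCS; cpd 2 h, 37 °C; PE–PD-L1-Ig 20 nM final, 1 h; PFA fix + Hoechst 33342, 3× dPBS wash; high-content imager.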

IC50 [nM]	Compound
101	CC(C)C[C@H]1NC(=O)[C@H](C)N(C)C(=O)[C@H](Cc2ccc(OCC(=O)O)cc2)NC(=O)[C@H](Cc2ccc(-c3ccccc3)cc2)NC(=O)[C@H](Cc2ccc(OCC(=O)O)cc2)NC(=O)[C@H](Cc2c[nH]c3ccccc23)NC(=O)[C@H](CC(=O)O)NC(=O)[C@H](Cc2ccc(OCC(=O)O)cc2)NC(=O)[C@H]([C@@H](C)O)NC(=O)CSC[C@@H](C(=O)N[C@@H](CCN)C(=O)NCCOCCOCC(=O)NCCCCCCCCCCC(=O)O)NC(=O)[C@H]([C@@H](C)O)NC(=O)[C@H](C(C)C)NC(=O)[C@H](CC2CCCCC2)NC(=O)[C@H](CC(N)=O)NC1=O [Example 1383] ({CH2CO}-TY(Carboxymethyl)DWY(Carboxymethyl)[Bip]Y(Carboxymethyl)[NMeA][dL]N[Cha]VTC[Dab][AEEA][Aun]-OH; thioether N-14)
193	CC(C)C[C@H]1NC(=O)[C@H](C)N(C)C(=O)[C@H](Cc2ccc(OCC(=O)O)cc2)NC(=O)[C@H](Cc2ccc(-c3ccccc3)cc2)NC(=O)[C@H](Cc2ccc(OCC(=O)O)cc2)NC(=O)[C@H](Cc2c[nH]c3ccccc23)NC(=O)[C@H](CC(=O)O)NC(=O)[C@H](Cc2ccc(OCC(=O)O)cc2)NC(=O)[C@H]([C@@H](C)O)NC(=O)CSC[C@@H](C(=O)N[C@@H](CCN)C(=O)NCCOCCOCC(=O)NCCCCCCCCCCC(=O)O)NC(=O)[C@H](CCCN)NC(=O)[C@H](C(C)C)NC(=O)[C@H](CC2CCCCC2)NC(=O)[C@H](CC(N)=O)NC1=O [Example 1384] ({CH2CO}-TY(Carboxymethyl)DWY(Carboxymethyl)[Bip]Y(Carboxymethyl)[NMeA][dL]N[Cha]V[Orn]C[Dab][AEEA][Aun]-OH; thioether N-14)
137	CC(C)C[C@H]1NC(=O)[C@H](C)N(C)C(=O)[C@H](Cc2ccc(OCC(=O)O)cc2)NC(=O)[C@H](Cc2ccc(-c3ccccc3)cc2)NC(=O)[C@H](Cc2ccc(OCC(=O)O)cc2)NC(=O)[C@H](Cc2c[nH]c3ccccc23)NC(=O)[C@H](CC(=O)O)NC(=O)[C@H](Cc2ccc(OCC(=O)O)cc2)NC(=O)[C@H]([C@@H](C)O)NC(=O)CSC[C@@H](C(=O)N[C@@H](CCN)C(=O)NCCOCCOCC(=O)NCCCCCCCCCCC(=O)O)NC(=O)[C@H](CCC(=O)O)NC(=O)[C@H](C(C)C)NC(=O)[C@H](CC2CCCCC2)NC(=O)[C@H](CC(N)=O)NC1=O [Example 1386] ({CH2CO}-TY(Carboxymethyl)DWY(Carboxymethyl)[Bip]Y(Carboxymethyl)[NMeA][dL]N[Cha]VEC[Dab][AEEA][Aun]-OH; thioether N-14)
401	CC(C)C[C@H]1NC(=O)[C@H](C)N(C)C(=O)[C@H](Cc2ccc(OCC(=O)O)cc2)NC(=O)[C@H](Cc2ccc(-c3ccccc3)cc2)NC(=O)[C@H](Cc2ccc(OCC(=O)O)cc2)NC(=O)[C@H](Cc2c[nH]c3ccccc23)NC(=O)[C@H](CC(=O)O)NC(=O)[C@H](Cc2ccc(OCC(=O)O)cc2)NC(=O)[C@H]([C@@H](C)O)NC(=O)CSC[C@@H](C(=O)N[C@@H](CCCN)C(=O)NCCOCCOCC(=O)NCCCCCCCCCCC(=O)O)NC(=O)[C@H]([C@@H](C)O)NC(=O)[C@H](C(C)C)NC(=O)[C@H](CC2CCCCC2)NC(=O)[C@H](CC(N)=O)NC1=O [Example 1387] ({CH2CO}-TY(Carboxymethyl)DWY(Carboxymethyl)[Bip]Y(Carboxymethyl)[NMeA][dL]N[Cha]VTC[Orn][AEEA][Aun]-OH; thioether N-14)

Continued, compound first:

Compound	IC50 [nM]
Cc1cccc(C[C@@H]2NC(=O)[C@H](CC(=O)O)NC(=O)[C@H](Cc3ccc(OCC(=O)O)cc3)NC(=O)[C@H]([C@@H](C)O)NC(=O)CSC[C@@H](C(=O)N[C@@H](CCN)C(=O)NCCOCCOCC(=O)NCCCCCCCCCCC(=O)O)NC(=O)[C@H]([C@@H](C)O)NC(=O)[C@H](C(C)C)NC(=O)[C@H](CC3CCCCC3)NC(=O)[C@H](CCC(=O)O)NC(=O)[C@@H](CC(C)C)NC(=O)[C@H](C)N(C)C(=O)[C@H](Cc3ccc(OCC(=O)O)cc3)NC(=O)[C@H](Cc3ccc(-c4ccccc4)cc3)NC(=O)[C@H](Cc3ccc(OCC(=O)O)cc3)NC2=O)c1 [Example 1375] ({CH2CO}-TY(Carboxymethyl)D[Phe(3-Me)]Y(Carboxymethyl)[Bip]Y(Carboxymethyl)[NMeA][dL]E[Cha]VTC[Dab][AEEA][Aun]-OH; thioether N-14)	31.8
Cc1cccc(C[C@@H]2NC(=O)[C@H](CC(=O)O)NC(=O)[C@H](Cc3ccc(OCC(=O)O)cc3)NC(=O)[C@H]([C@@H](C)O)NC(=O)CSC[C@@H](C(=O)N[C@@H](CCN)C(=O)NCCOCCOCC(=O)NCCCCCCCCCCC(=O)O)NC(=O)[C@H](CCCN)NC(=O)[C@H](C(C)C)NC(=O)[C@H](CC3CCCCC3)NC(=O)[C@H](CCC(=O)O)NC(=O)[C@@H](CC(C)C)NC(=O)[C@H](C)N(C)C(=O)[C@H](Cc3ccc(OCC(=O)O)cc3)NC(=O)[C@H](Cc3ccc(-c4ccccc4)cc3)NC(=O)[C@H](Cc3ccc(OCC(=O)O)cc3)NC2=O)c1 [Example 1376] ({CH2CO}-TY(Carboxymethyl)D[Phe(3-Me)]Y(Carboxymethyl)[Bip]Y(Carboxymethyl)[NMeA][dL]E[Cha]V[Orn]C[Dab][AEEA][Aun]-OH; thioether N-14)	45.8
Cc1cccc(C[C@@H]2NC(=O)[C@H](CC(=O)O)NC(=O)[C@H](Cc3ccc(OCC(=O)O)cc3)NC(=O)[C@H]([C@@H](C)O)NC(=O)CSC[C@@H](C(=O)N[C@@H](CCN)C(=O)NCCOCCOCC(=O)NCCCCCCCCCCC(=O)O)NC(=O)[C@H](CC(N)=O)NC(=O)[C@H](C(C)C)NC(=O)[C@H](CC3CCCCC3)NC(=O)[C@H](CCC(=O)O)NC(=O)[C@@H](CC(C)C)NC(=O)[C@H](C)N(C)C(=O)[C@H](Cc3ccc(OCC(=O)O)cc3)NC(=O)[C@H](Cc3ccc(-c4ccccc4)cc3)NC(=O)[C@H](Cc3ccc(OCC(=O)O)cc3)NC2=O)c1 [Example 1377] ({CH2CO}-TY(Carboxymethyl)D[Phe(3-Me)]Y(Carboxymethyl)[Bip]Y(Carboxymethyl)[NMeA][dL]E[Cha]VNC[Dab][AEEA][Aun]-OH; thioether N-14)	31
CC(C)C[C@H]1NC(=O)[C@H](C)N(C)C(=O)[C@H](Cc2ccc(OCC(=O)O)cc2)NC(=O)[C@H](Cc2ccc(-c3ccccc3)cc2)NC(=O)[C@H](Cc2ccc(OCC(=O)O)cc2)NC(=O)[C@H](Cc2c[nH]c3ccccc23)NC(=O)[C@H](CC(=O)O)NC(=O)[C@H](Cc2ccncc2)NC(=O)[C@H](Cc2ccc(OCC(=O)O)cc2)NC(=O)CSC[C@@H](C(=O)N[C@@H](CCN)C(=O)NCCOCCOCC(=O)NCCCCCCCCCCC(=O)O)NC(=O)[C@H]([C@@H](C)O)NC(=O)[C@H](C(C)C)NC(=O)[C@H](CC2CCCCC2)NC(=O)[C@H](CC(N)=O)NC1=O [Example 1378] ({CH2CO}-Y(Carboxymethyl)[4Pal]DWY(Carboxymethyl)[Bip]Y(Carboxymethyl)[NMeA][dL]N[Cha]VTC[Dab][AEEA][Aun]-OH; thioether N-14)	94.8
CC(C)C[C@H]1NC(=O)[C@H](C)N(C)C(=O)[C@H](Cc2ccc(OCC(=O)O)cc2)NC(=O)[C@H](Cc2ccc(-c3ccccc3)cc2)NC(=O)[C@H](Cc2ccc(OCC(=O)O)cc2)NC(=O)[C@H](Cc2c[nH]c3ccccc23)NC(=O)[C@H](CC(=O)O)NC(=O)[C@H](Cc2ccncc2)NC(=O)[C@H](Cc2ccc(OCC(=O)O)cc2)NC(=O)CSC[C@@H](C(=O)N[C@@H](CCCN)C(=O)NCCOCCOCC(=O)NCCCCCCCCCCC(=O)O)NC(=O)[C@H]([C@@H](C)O)NC(=O)[C@H](C(C)C)NC(=O)[C@H](CC2CCCCC2)NC(=O)[C@H](CC(N)=O)NC1=O [Example 1379] ({CH2CO}-Y(Carboxymethyl)[4Pal]DWY(Carboxymethyl)[Bip]Y(Carboxymethyl)[NMeA][dL]N[Cha]VTC[Orn][AEEA][Aun]-OH; thioether N-14)	175
CC(C)C[C@H]1NC(=O)[C@H](C)N(C)C(=O)[C@H](Cc2ccc(OCC(=O)O)cc2)NC(=O)[C@H](Cc2ccc(-c3ccccc3)cc2)NC(=O)[C@H](Cc2ccc(OCC(=O)O)cc2)NC(=O)[C@H](Cc2c[nH]c3ccccc23)NC(=O)[C@H](CC(=O)O)NC(=O)[C@H](Cc2ccncc2)NC(=O)[C@H](Cc2ccc(OCC(=O)O)cc2)NC(=O)CSC[C@@H](C(=O)N[C@@H](CCN)C(=O)NCCOCCOCC(=O)NCCCCCCCCCCC(=O)O)NC(=O)[C@H](CCCN)NC(=O)[C@H](C(C)C)NC(=O)[C@H](CC2CCCCC2)NC(=O)[C@H](CC(N)=O)NC1=O [Example 1380] ({CH2CO}-Y(Carboxymethyl)[4Pal]DWY(Carboxymethyl)[Bip]Y(Carboxymethyl)[NMeA][dL]N[Cha]V[Orn]C[Dab][AEEA][Aun]-OH; thioether N-14)	119
CC(C)C[C@H]1NC(=O)[C@H](C)N(C)C(=O)[C@H](Cc2ccc(OCC(=O)O)cc2)NC(=O)[C@H](Cc2ccc(-c3ccccc3)cc2)NC(=O)[C@H](Cc2ccc(OCC(=O)O)cc2)NC(=O)[C@H](Cc2c[nH]c3ccccc23)NC(=O)[C@H](CC(=O)O)NC(=O)[C@H](Cc2ccncc2)NC(=O)[C@H](Cc2ccc(OCC(=O)O)cc2)NC(=O)CSC[C@@H](C(=O)N[C@@H](CCN)C(=O)NCCOCCOCC(=O)NCCCCCCCCCCC(=O)O)NC(=O)[C@H]([C@@H](C)O)NC(=O)[C@H](C(C)C)NC(=O)[C@H](CC2CCCCC2)NC(=O)[C@H](CCN)NC1=O [Example 1381] ({CH2CO}-Y(Carboxymethyl)[4Pal]DWY(Carboxymethyl)[Bip]Y(Carboxymethyl)[NMeA][dL][Dab][Cha]VTC[Dab][AEEA][Aun]-OH; thioether N-14)	27.4
CC(C)C[C@H]1NC(=O)[C@H](C)N(C)C(=O)[C@H](Cc2ccc(OCC(=O)O)cc2)NC(=O)[C@H](Cc2ccc(-c3ccccc3)cc2)NC(=O)[C@H](Cc2ccc(OCC(=O)O)cc2)NC(=O)[C@H](Cc2c[nH]c3ccccc23)NC(=O)[C@H](CC(=O)O)NC(=O)[C@H](Cc2ccncc2)NC(=O)[C@H](Cc2ccc(OCC(=O)O)cc2)NC(=O)CSC[C@@H](C(=O)N[C@@H](CCCN)C(=O)NCCOCCOCC(=O)NCCCCCCCCCCC(=O)O)NC(=O)[C@H]([C@@H](C)O)NC(=O)[C@H](C(C)C)NC(=O)[C@H](CC2CCCCC2)NC(=O)[C@H](CCN)NC1=O [Example 1382] ({CH2CO}-Y(Carboxymethyl)[4Pal]DWY(Carboxymethyl)[Bip]Y(Carboxymethyl)[NMeA][dL][Dab][Cha]VTC[Orn][AEEA][Aun]-OH; thioether N-14)	110
